According to patent publication US12507703B2, “Methods, devices and compositions for preserving human milk” (The Trustees of Princeton University, priority 2023, dated 2025):
Values joined by “and” are separate entries in the source; they are usually repeats but may differ in a detail not shown here. Equal entries are not always repeated. Where two headings read alike, the source gives them in different places.

What was measured:
glycerol = test: Glycerol-Glo assay of glycerol (byproduct of fat breakdown) in stored human milk; assay type: biochemical
Method: Eight human milk samples were tested to determine if glycerol, a byproduct of fat breakdown, accumulated after storage. Human milk samples were collected from the same donor anywhere between 1 month and 7 months after birth, frozen, and then thawed for testing. The samples were frozen on the same day as collection. […] The samples were thawed, and the presence of glycerol was detected by a glycerol-dependent, light-producing reaction presented as a measure of bioluminescence using the Glycerol-Glo™ Assay (Promega; catalog #: J3150) according to the manufacturer's instructions. A buffer with either 0 μM glycerol or 100 μM glycerol, alongside organic whole milk (cow) was used as a control. Glycerol content (bioluminescence) was measured using a BioTek Synergy Neo2 Hybrid Multimode Reader (Agilent; catalog #: BTNE02).

lipase = test: Lipase/lipolysis assay (EnzChek Lipase Substrate, quenched BODIPY-fatty acid conjugate) on stored human milk; details: for Lipolysis: 5 ounces unpasteurized human milk, frozen −20° C. 1 week
[1] = Total Antioxidant Capacity Assay Kit on stored human milk
Method: The compounds in Table 7 were added to fresh human milk and the samples were stored for 1 week at −20° C. […] Additionally, select compounds were tested for total Antioxidant capacity using the Total Antioxidant Capacity: Total Antioxidant Capacity Assay Kit (Abcam; catalog #: ab65329) in accordance with the manufacturer's instructions and presented as a relative ratio compared to fresh human milk. […] Lipase was considered inhibited with a RFU <400, glycerol was considered inhibited with an RLU <150,000, and total antioxidant capacity considered maintained with a ratio >0.75. Results presented in Table 7 represent a dose of 500 μg/mL for vitamin C, E and the carbonate/bicarbonates. All other compounds are at 20 mg/mL. Additionally, all compounds were tested for lipase and antioxidant capacity at multiple dilutions.

[2] = Table 7, 500 μg/mL, relative ratio compared to fresh human milk, maintained if >0.75

Row | Molecule | Lipase (RFU) (lipase) | further results
1 | O.O=C[C@H](O)[C@@H](O)[C@@H](O)[C@H](O)C(=O)O [D-(+)-Galacturonic acid monohydrate] | 324.895 RFU | Glycerol (RLU) (glycerol): 71322 RLU
2 | O=C(O)[C@H]1O[C@H](O[C@@H]2[C@H](O)[C@@H](O)[C@@H](O)O[C@@H]2C(=O)O)[C@H](O)[C@@H](O)[C@H]1O [Digalacturonic acid] | 264.075 RFU | Glycerol (RLU) (glycerol): 61741 RLU
3 | O=C(O)[C@H]1O[C@H](O[C@@H]2[C@H](O)[C@@H](O)[C@@H](O[C@@H]3[C@H](O)[C@@H](O)C(O)O[C@@H]3C(=O)O)O[C@@H]2C(=O)O)[C@H](O)[C@@H](O)[C@H]1O (some centres unmarked) [Trigalacturonic acid] | 352.972 RFU | Glycerol (RLU) (glycerol): 61363 RLU
4 | O=C1O[C@H]([C@@H](O)CO)C(O)=C1O [Vitamin C, ascorbic acid] |  | Total Antioxidant Capacity [1, 2]: 2
5 | (+)-Secoisolariciresinol | 1148.179 RFU | 
6 | (−)-Epiafzelechin | 915.141 RFU | 
7 | (−)-Epigallocatechin | 928.0708 RFU | 
8 | (−)-Epigallocatechin Gallate | 333.087 RFU | 
9 | (−)-Fenchone | 812.4614 RFU | 
10 | (−)-Limonene | 914.6466 RFU and 836.6929 RFU | 
11 | (−)-Menthone | 1263.606 RFU | 
12 | Adenine (hemisulfate) | 842.2125 RFU | 
13 | Alliin | 782.3552 RFU | 
14 | Anacardic Acid | 908.2535 RFU | 
15 | Carbinoxamine maleate salt | 807.8179 RFU | 
16 | Catechin | 945.7654 RFU | 
17 | Chicoric acid | 1008.153 RFU | 
18 | Chondroitin (sulfate) | 714.418 RFU | 
19 | Chondroitin Sulfate | 348.836 RFU | 
20 | Chondroitin Sulfate C | 308.9045 RFU | Hit in lipase inhibition screen (in words) (lipase): significantly inhibited lipase activity
21 | Curdlan | 876.416 RFU | 
22 | Cytidine-2′,3′-cyclic monophosphate | 1332.358 RFU | 
23 | D-(−)-Quinic acid | 827.4863 RFU | 

Row | Molecule | Lipase (RFU) (lipase) | further results
24 | D-Pantothenic acid (hemicalcium salt) | 932.4036 RFU | 
25 | Dextran | 949.1554 RFU | 
26 | Dextrin | 915.3079 RFU | 
27 | Disodium succinate | 1168.659 RFU and 874.998 RFU | 
28 | Eicosadienoic acid | 795.3404 RFU | 
29 | Elemicin | 1009.834 RFU | 
30 | Erythrosine B | 836.3958 RFU | 
31 | Estrone sulfate (potassium) | 961.3154 RFU | 
32 | Fucoidan from Macrocystis pyrifera | 384.150 RFU | 
33 | Gentiobiose | 1106.66 RFU | 
34 | Ginkgolic Acid | 924.5734 RFU | 
35 | Ginkgolide C | 1234.872 RFU | 
36 | Gluconate (Calcium) | 840.1946 RFU | 
37 | Glycogen | 745.3227 RFU | 
38 | Guar gum |  | Total Antioxidant Capacity [1]: 0.59; Glycerol (RLU) (glycerol): 744165 RLU
39 | Gum arabic | 744.000 RFU | Total Antioxidant Capacity [1]: 0.64; Glycerol (RLU) (glycerol): 329275 RLU
40 | Heparan Sulfate | 1097.057 RFU | 
41 | Hyaluronic acid | 1101.829 RFU | 
42 | Inulin | 793.2721 RFU and 805.6516 RFU and 1006.043 RFU | Effect on lipase / lipolysis (in words) (lipase): did not inhibit or slow human milk lipolysis; Synergistic effect in combination testing (in words) (lipase): did not have synergistic effects
43 | Isobergapten | 1247.074 RFU | 
44 | Isoliquiritin apioside | 821.8958 RFU | 
45 | Lactate | 1249.686 RFU | 
46 | Lambda carageenan | 432.920 RFU | Glycerol (RLU) (glycerol): 140894 RLU

Row | Molecule | Lipase (RFU) (lipase) | further results
47 | Laminarin | 336.7375 RFU and 594.197 RFU | Hit in lipase inhibition screen (in words) (lipase): significantly inhibited lipase activity
48 | Lignin | 849.2641 RFU | 
49 | Liquiritin apioside | 875.5815 RFU | 
50 | Locust bean gum | 1054.203 RFU | Total Antioxidant Capacity [1]: 0.55; Glycerol (RLU) (glycerol): 435487 RLU
51 | Lupeol acetate | 966.2407 RFU | 
52 | Maltohexaose | 977.7036 RFU | 
53 | Maltopentaose | 907.876 RFU | 
54 | Maltotetraose | 824.2713 RFU | 
55 | Maltotriose | 917.8057 RFU and 1104.158 RFU | 
56 | Mannan | 1091.353 RFU | 
57 | Medicarpin | 622.3141 RFU | 
58 | Notoginsenoside Fe | 902.3283 RFU | 
59 | O-Nornuciferine | 773.2053 RFU | 
60 | Pectin |  | Total Antioxidant Capacity ([1]; Subject 1, 5 ounces unpasteurized human milk, frozen −20° C. 1 week, measure of absorbance): 0.204; Total Antioxidant Capacity ([1]; Subject 2, 5 ounces unpasteurized human milk, frozen −20° C. 1 week, measure of absorbance): 0.264; Total Antioxidant Capacity ([1]; Subject 3, 5 ounces unpasteurized human milk, frozen −20° C. 1 week, measure of absorbance): 0.364; Lipolysis (lipase; Subject 1): 209; Lipolysis (lipase; Subject 2): 525; Lipolysis (lipase; Subject 3): 280
61 | Perfected guar gum | 1061.697 RFU | Total Antioxidant Capacity [1]: 0.72; Glycerol (RLU) (glycerol): 838585 RLU
62 | Phytol | 1207.906 RFU and 715.6019 RFU | 
63 | Pinoresinol | 1253.681 RFU | 
64 | Poly-D-galacturonic acid methyl ester (apple) | 611.342 RFU | Glycerol (RLU) (glycerol): 643757 RLU
65 | Poly-D-galacturonic acid methyl ester (citrus) | 320.660 RFU | Glycerol (RLU) (glycerol): 122743 RLU
66 | Polygalacturonic acid | 398.125 RFU | Glycerol (RLU) (glycerol): 120477 RLU
67 | Prosapogenin A | 965.3667 RFU | 
68 | Pseudoginsenoside F11 | 810.4484 RFU | 
69 | Pyropheophorbide-a | 1205.079 RFU | 

Row | Molecule | Lipase (RFU) (lipase) | further results
70 | Rebaudioside A | 1278.993 RFU | 
71 | Rhamnose | 816.2993 RFU and 1253.305 RFU | 
72 | Riboflavin (phosphate sodium) [listing 1 of 2 here] | 760.1592 RFU | 
73 | Riboflavin (phosphate sodium) [listing 2 of 2 here] | 1091.899 RFU | 
74 | Schaftoside | 900.214 RFU | 
75 | Solanesol | 985.7418 RFU | 
76 | Sorafenib (Tosylate) | 986.7553 RFU | 
77 | Tara gum | 841.631 RFU | 
78 | Theaflavin 3,3′-digallate | 933.3624 RFU | 
79 | Theaflavin-3′-gallate | 780.4384 RFU | 
80 | Thiamine nitrate | 1094.609 RFU and 1092.499 RFU | 
81 | Triolein | 728.6705 RFU | 
82 | Triton X-100 [reference compound] | 370.282 RFU | Glycerol (RLU) (glycerol): 145670 RLU
83 | Tween 80 |  | Effect on glycerol production (in words) (glycerol): reduced lipase and glycerol production; Glycerol (RLU) (glycerol): 113807 RLU; Effect on lipase / lipolysis (in words) (lipase): reduced lipase and glycerol production; Hit in lipase inhibition screen (in words) (lipase): significantly inhibited lipase activity
84 | Ursolic acid acetate | 811.3971 RFU | 
85 | Xanthan gum | 873.106 RFU | 
86 | Xylan | 1273.332 RFU | 
87 | tocopherol [Vitamin E] |  | Total Antioxidant Capacity [1, 2]: 2
88 | trans-Zeatin | 1016.786 RFU | 
89 | β Glucan - 1,3/1,6 | 942.984 RFU | 
90 | β-Alanine | 882.8696 RFU and 1205.931 RFU | 
91 | β-D-Glucan from barley | 995.347 RFU | 
92 | γ-Oryzanol | 1128.852 RFU | 
